Laboratory results taken from patent publication US20210388260A1, “USE OF A SUBSTITUTED OR UNSUBSTITUTED POLYCYCLIC AROMATIC HYDROCARBON COMPOUND FOR HIGH-RESOLUTION MICROSCOPY” (Max-Planck-Gesellschaft zur Förderung der Wissenschaften e.V, priority 2018, published 2021).
Converted amounts (≈) assume the structure as drawn.

What was measured:
[1] = Absorption and emission spectra, molar extinction coefficient, fluorescence quantum yield; format: physicochemical; details: for width of absorption and emission spectra: spectra of FIGS. 3a-d, 4a-d; for fluorescence quantum yield / maximum absorption wavelength / molar extinction coefficient ε: in toluene (10^−5 mol/L); for molar extinction coefficient ε: at maximum absorption wavelength
Text: The maximum absorption wavelength in toluene (10^−5 mol/L) was 611 nm (molar extinction coefficient ε=2.03×10^5 M^−1 cm^−1) with a high fluorescence quantum yield of 0.85.
The maximum absorption wavelength in toluene (10^−5 mol/L) was 609 nm (molar extinction coefficient c=2.83×10^5 M^−1 cm^−1) with a high fluorescence quantum yield of 0.85.
The maximum absorption wavelength in toluene (10^−5 mol/L) was 647 nm (molar extinction coefficient ε=61511 M^−1 cm^−1) with a fluorescence quantum yield of 0.67.
The maximum absorption wavelength in toluene (10^−5 mol/L) was 609 nm (molar extinction coefficient ε=3.85×10^5 M^−1 cm^−1) with a high fluorescence quantum yield of 0.89.

[2] = format: physicochemical
Description: (§1) 3,4,5-Tris(hexaethylene glycol) substituted 6,14-dimesityldibenzo[hi,st]ovalene was prepared analogous to example 4 and evaluated concerning its toxicity.

[3] = Toxicity evaluation (Example 9)
Description: as §1

Solubility in water = format: physicochemical; details: room temperature
Description: In accordance with the present invention, the solubility and particularly the solubility of the compound having the general formula (1) or the general formula (2) in water at 23° C. is measured as follows: 1 mg sample is weighed into an Erlenmeyer flask and is then mixed homogeneously with 4 ml of water with a spatula at 23° C. The remaining substance on the spatula is stripped off with a magnetic stirrer bar, which is then added to the Erlenmeyer flask. While stirring with a magnetic stirrer, water is added dropwise with a burette until the solution in the Erlenmeyer flask becomes clear at 23° C. After that, the solubility of compound in water is calculated by calculating the ratio of weighed compound divided by the volume of added water and then by recalculating this ratio to 1 l of water.

living cells [4] = assay: Cytotoxicity test in living cells (Example 13, FIG. 8); format: cell-based; details: concentration of 1 μM
Description: (§2) More specifically, the cytotoxicity of DBOV-Mes-OTEG was tested in living cells. […] Moreover, the uptake of DBOV-Mes-OTEG into living cells was investigated by imaging 21 hours with low laser intensity at the spinning disk confocal microscopy (Visitron).

living cells [5] = assay: Uptake into living cells, spinning disk confocal microscopy; format: cell-based
Description: as §2

fixed cells = assay: Blinking-mode imaging of fixed cell samples in PBS without special imaging buffer; format: cell-based
Text: After the aforementioned live cell imaging, the samples were fixed and imaged in phosphate-buffered saline (PBS) without special imaging buffer.

[6] = STED imaging, stability embedded in polystyrene and in air (Example 12); format: physicochemical; details: high STED beam power, 3D STED imaging of more than one hour
Description: Different measurements were performed with 6,14-dimesityldibenzo[hi,st]ovalene being embedded in a polystyrene matrix and with 6,14-dimesityldibenzo[hi,st]ovalene in air. A Leica SP8 microscopy was used for the microscopy with an excitation laser wavelength of 561 nm and depletion (STED) laser wavelength of 775 nm.
The prepared glass coverslips were taped to a slide and kept in dark at room temperature until use.
A 15-months old sample of 6,14-dimesityldibenzo[hi,st]ovalene embedded in polystyrene as well as a freshly prepared sample of 6,14-dimesityldibenzo[hi,st]ovalene embedded in polystyrene were analyzed by STED.
6,14-dimesityldibenzo[hi,st]ovalene powder was dispersed in toluene at room temperature to a concentration of 10^−5 mol/L and was then further diluted to the needed concentration of e.g. 10^−7 mol/L. A gridded glass coverslip (#1.5) purchased from Ibidi GmbH in Martinsried, Germany which have microscopic/nano-structures was cleaned by oxygen-plasma cleaner (250 W, 5 minutes). 8 μl 10^−7 mol/L solution were put on top of the micro/nano-structure sample. After a few minutes, when all of the toluene was volatilized completely, the prepared sample was put on the microscope for 3D STED imaging.
The STED was performed with the following microscopy settings of the Leica SP8 microscope: […]

Molecule	width of absorption and emission spectra [1]	fluorescence quantum yield [1]	maximum absorption wavelength [1]	molar extinction coefficient ε [1]	also measured
6,14-diphenyldibenzo[hi,st]ovalene [Example 7]	narrow absorption spectrum as well as a narrow emission spectrum	–	–	–	–
3,4,5-Tris(hexaethylene glycol) substituted 6,14-dimesityldibenzo[hi,st]ovalene	–	–	–	–	solubility in DMSO [2]: good solubility; concentration up to which the compound is non-toxic [3]: ≤ 5 µM
CCCCCCCCCCCCOc1cc(-c2c3cccc4c5ccc6ccc7c(-c8cc(OCCCCCCCCCCCC)c(OCCCCCCCCCCCC)c(OCCCCCCCCCCCC)c8)c8cccc9c%10ccc%11ccc2c2c%11c%10c%10c(c89)c7c6c5c%10c2c34)cc(OCCCCCCCCCCCC)c1OCCCCCCCCCCCC [Example 6, 6,14-bis[3,4,5-tris(dodecoxyl)-phenyl]dibenzo[hi,st]ovalene]	–	0.89	609 nm	385000 M⁻¹ cm⁻¹	–
CC(C)[Si](C#Cc1c2cccc3c4ccc5ccc6c(C#C[Si](C(C)C)(C(C)C)C(C)C)c7cccc8c9ccc%10ccc1c1c%10c9c9c(c78)c6c5c4c9c1c23)(C(C)C)C(C)C [Example 5, 6,14-di(triisopropylsilylethynyl) dibenzo[hi,st]ovalene]	narrow absorption spectrum as well as a narrow emission spectrum	0.67	647 nm	61511 M⁻¹ cm⁻¹	–
CCCCCCCCCCCCc1c2cccc3c4ccc5ccc6c(CCCCCCCCCCCC)c7cccc8c9ccc%10ccc1c1c%10c9c9c(c78)c6c5c4c9c1c23 [Example 1, 6,14-didodecyldibenzo[hi,st]ovalene]	–	0.85	611 nm	203000 M⁻¹ cm⁻¹	melting point: > 400 °C
COCCOCCOCCOCCOc1cc(-c2ccc3cc4cc5c(-c6c(C)cc(C)cc6C)cc6cc7c(-c8cc(OCCOCCOCCOCCOC)c(OCCOCCOCCOCCOC)c(OCCOCCOCCOCCOC)c8)ccc8cc9cc%10c(-c%11c(C)cc(C)cc%11C)cc%11cc2c3c2c%11c%10c3c9c(c87)c6c5c3c42)cc(OCCOCCOCCOCCOC)c1OCCOCCOCCOCCOC [Example 4, 3,11-bis(3,4,5-tris(2,5,8,11-tetraoxatridecan-13-yloxy)phenyl)-6,14-dimesityldibenzo[hi,st]ovalene]	–	–	–	–	solubility in water (Solubility in water): 0.1 g/L (≈ 47.7 µM); toxicity to cells (living cells [4]): does not show any significant toxicity; location of compound in living cells (living cells [5]; after 21 hours incubation): in the nucleus and nuclear membrane; location of compound in living cells (living cells [5]; at the beginning of the incubation): taken into the cytoplasm; decrease of blinking signals (fixed cells; continuous exposure, high laser intensity 10 kW/cm^2 for 90 min): no significant decrease; blinking signals at low laser intensity (fixed cells; low laser intensity of 240 W/cm^2): blinking signals could also be imaged
Cc1cccc(C)c1-c1c2cccc3c4ccc5ccc6c(-c7c(C)cccc7C)c7cccc8c9ccc%10ccc1c1c%10c9c9c(c78)c6c5c4c9c1c23 [Example 2, 6,14-bis(dimethylphenyl)dibenzo[hi,st]ovalene]	narrow absorption spectrum as well as a narrow emission spectrum	0.85	609 nm	283000 M⁻¹ cm⁻¹	–
CCCCCCn1c(=O)c2c3ccc4c(-c5c(C)cc(C)cc5C)c5ccc6cc7c8c(=O)n(CCCCCC)c(=O)c8c8ccc9c(-c%10c(C)cc(C)cc%10C)c%10ccc%11cc(c2c1=O)c1c3c4c2c5c6c3c7c8c9c4c%10c%11c1c2c43 [Example 8, N-hexyl fumaric acid imide group substituted 6,14-dimesityldibenzo[hi,st]ovalene]	narrow absorption spectrum as well as a narrow emission spectrum	–	–	–	–
Cc1cc(C)c(-c2c3cccc4c5ccc6ccc7c(-c8c(C)cc(C)cc8C)c8cccc9c%10ccc%11ccc2c2c%11c%10c%10c(c89)c7c6c5c%10c2c34)c(C)c1 [DBOV-Mes, 6,14-dimesityldibenzo[hi,st]ovalene]	–	–	–	–	stability and brightness under STED beam [6]: very stable and still very bright
